Results from ChEMBL document CHEMBL1201862, “PubChem BioAssay data set” (2004).
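Exposure lasted 48 hours, with cells grown in 96-well plates and compounds tested at five concentrations. GI50: concentration for 50% inhibition of growth.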 Calls of active or inactive are those of the source. Rule as the data show it: active = GI50 up to about 1.1 µM and inactive = higher.

Legend:
Experiment in all cases: inhibition of tumour cell growth, NCI panel, 48 h
NCI-H460 = tested on: NCI-H460
HOP-92 = tested on: HOP-92
IGROV-1 = tested on: IGROV-1
UO-31 = tested on: UO-31
SR = tested on: SR
SW-620 = tested on: SW-620
SF-539 = tested on: SF-539
SNB-75 = tested on: SNB-75
EKVX = tested on: EKVX
SN12C = tested on: SN12C
M14 = tested on: M14
SNB-19 = tested on: SNB-19
SK-MEL-5 = tested on: SK-MEL-5
HOP-62 = tested on: HOP-62
A549 = tested on: A549
PC-3 = tested on: PC-3
DU-145 = tested on: DU-145
BT-549 = tested on: BT-549
NCI/ADR-RES = tested on: NCI/ADR-RES
Hs-578T = tested on: Hs-578T

Measured: GI50

O=C(NNC(=O)/C(=C/c1cccc([N+](=O)[O-])c1)NC(=O)c1ccccc1)Nc1ccc(Cl)cc1
inactive: NCI-H460 14.6 µM | HOP-92 21 µM | IGROV-1 11.9 µM | UO-31 13.5 µM | SR 7.74 µM | SW-620 15.1 µM | SF-539 16.7 µM | SNB-75 13.6 µM | EKVX 18.7 µM | SN12C 14.5 µM | M14 12.8 µM | SNB-19 12.7 µM | SK-MEL-5 13.1 µM | HOP-62 14.3 µM | A549 14.3 µM

O=C(O)c1cccc(SSc2cccc(C(=O)O)c2)c1
inactive: NCI-H460 > 100 µM | HOP-92 > 100 µM | IGROV-1 > 100 µM | UO-31 > 100 µM | SR > 100 µM | SW-620 > 100 µM | SF-539 > 100 µM | PC-3 > 100 µM | SNB-75 > 100 µM | DU-145 > 100 µM | EKVX > 100 µM | SN12C > 100 µM | M14 > 100 µM | SNB-19 > 100 µM | BT-549 > 100 µM | SK-MEL-5 > 100 µM | HOP-62 > 100 µM | NCI/ADR-RES > 100 µM | A549 > 100 µM

N#Cc1ccc(-c2nc3cc(Cl)ccc3[nH]2)cc1
inactive: HOP-92 > 100 µM | IGROV-1 > 100 µM | UO-31 27.6 µM | SR 80 µM | SW-620 > 100 µM | SF-539 > 100 µM | PC-3 40.2 µM | SNB-75 > 100 µM | EKVX 23.1 µM | SN12C 51.1 µM | M14 79.1 µM | Hs-578T > 100 µM | SNB-19 > 100 µM | BT-549 68.2 µM | SK-MEL-5 37.8 µM | HOP-62 > 100 µM | NCI/ADR-RES 30.4 µM | A549 38.3 µM

C#CC(O)/C=C/C(O)CCCC(O)CC#CC(O)C#CCCCCC(O)/C=C/CCCCCC(=O)CCCCCCCCCCCCCC(O)C(O)C#CC(=O)O (centres undefined)
inactive: NCI-H460 > 25 µM | HOP-92 > 25 µM | IGROV-1 4.13 µM | UO-31 11.5 µM | SR 7.13 µM | PC-3 > 25 µM | SNB-75 > 25 µM | DU-145 > 25 µM | EKVX > 25 µM | SN12C > 25 µM | M14 > 25 µM | Hs-578T > 25 µM | SNB-19 > 25 µM | SK-MEL-5 > 25 µM | HOP-62 > 25 µM | NCI/ADR-RES > 25 µM | A549 > 25 µM

COC(=O)[C@H](CCSC)NC(=O)c1ccc(CNC(=O)/C(C)=C/c2ccccc2)cc1
inactive: NCI-H460 26.6 µM | HOP-92 25.8 µM | IGROV-1 50.1 µM | UO-31 43.5 µM | SR 92.7 µM | SW-620 47 µM | SF-539 26.5 µM | PC-3 47 µM | SNB-75 3.81 µM | DU-145 37.9 µM | EKVX 83.2 µM | SN12C 88.1 µM | M14 30.8 µM | SNB-19 24.7 µM | BT-549 24.7 µM | SK-MEL-5 34.8 µM | HOP-62 21.8 µM | NCI/ADR-RES 25.9 µM | A549 52 µM

O=C1CCCCC/C1=C\c1ccc(F)cc1
inactive: NCI-H460 50.1 µM | HOP-92 61.1 µM | IGROV-1 > 100 µM | UO-31 42.4 µM | SR 47.6 µM | SW-620 > 100 µM | PC-3 > 100 µM | SNB-75 > 100 µM | DU-145 > 100 µM | EKVX > 100 µM | SN12C > 100 µM | M14 > 100 µM | Hs-578T 86.1 µM | SNB-19 > 100 µM | BT-549 99.1 µM | SK-MEL-5 44.8 µM | HOP-62 > 100 µM | A549 > 100 µM

COC1=C[C@]2(CCC(=O)O2)[C@@H]2Cc3ccccc3[C@H](O)[C@@H]2C1=O
inactive: NCI-H460 85.9 µM | HOP-92 78.3 µM | IGROV-1 82.6 µM | UO-31 39.8 µM | SR 19.5 µM | SW-620 28.4 µM | PC-3 31.2 µM | EKVX > 100 µM | SN12C 47.6 µM | M14 > 100 µM | Hs-578T > 100 µM | SNB-19 > 100 µM | BT-549 49.3 µM | SK-MEL-5 17.5 µM | HOP-62 69.3 µM | NCI/ADR-RES 97.9 µM | A549 > 100 µM

Cc1oc2ccccc2c(=O)c1Cn1nnc2ccccc21
inactive: NCI-H460 43.8 µM | HOP-92 18.6 µM | UO-31 47.3 µM | SR 35.9 µM | SW-620 > 100 µM | SF-539 > 100 µM | PC-3 > 100 µM | SNB-75 45.6 µM | DU-145 25.5 µM | EKVX > 100 µM | SN12C > 100 µM | M14 80.7 µM | Hs-578T 83.2 µM | SNB-19 > 100 µM | SK-MEL-5 20.5 µM | HOP-62 > 100 µM | NCI/ADR-RES 60.7 µM | A549 70.8 µM

CCOc1cc(-c2nc3cc(F)ccc3s2)ccc1O
inactive: NCI-H460 17.3 µM | IGROV-1 12.5 µM | UO-31 12.9 µM | SW-620 19.4 µM | SF-539 18.8 µM | PC-3 14.5 µM | DU-145 17.6 µM | EKVX 10.8 µM | SN12C 19.1 µM | M14 17.2 µM | SNB-19 16.5 µM | BT-549 16.1 µM | SK-MEL-5 16.6 µM | NCI/ADR-RES 23 µM | A549 17.9 µM

COc1cc(-c2nccc3cc(OC)c(OC)cc23)ccc1O
inactive: NCI-H460 27.8 µM | HOP-92 23.9 µM | IGROV-1 80 µM | UO-31 > 100 µM | SR 30.3 µM | SW-620 55.2 µM | SF-539 35.4 µM | SNB-75 75.7 µM | EKVX 35.6 µM | SN12C 48.2 µM | M14 45.9 µM | SNB-19 68.1 µM | SK-MEL-5 32.6 µM | HOP-62 > 100 µM | A549 > 100 µM

CNC(=O)N1CN(c2ccccc2)C2(CCN(CCCC3(c4ccc(F)cc4)OCCO3)CC2)C1=O
inactive: NCI-H460 > 100 µM | HOP-92 > 100 µM | IGROV-1 > 100 µM | UO-31 > 100 µM | SR > 100 µM | SW-620 > 100 µM | SF-539 > 100 µM | PC-3 > 100 µM | SNB-75 > 100 µM | DU-145 > 100 µM | EKVX > 100 µM | SN12C > 100 µM | M14 > 100 µM | Hs-578T > 100 µM | SNB-19 > 100 µM | SK-MEL-5 > 100 µM | HOP-62 > 100 µM | NCI/ADR-RES > 100 µM | A549 > 100 µM

O=C(CCNC12CC3CC(CC(C3)C1)C2)c1ccccc1
inactive: NCI-H460 19.6 µM | HOP-92 20.4 µM | IGROV-1 21.6 µM | UO-31 25.1 µM | SR 13.4 µM | SW-620 17.3 µM | SF-539 20.9 µM | PC-3 19.6 µM | SNB-75 33 µM | DU-145 24.8 µM | SN12C 16.6 µM | M14 17.8 µM | SNB-19 47 µM | BT-549 28.7 µM | SK-MEL-5 17.9 µM | NCI/ADR-RES 21.2 µM | A549 30.1 µM

[O-][S+](Nc1ccccc1)c1ccc(Cl)c(Cl)c1 (centres undefined)
inactive: NCI-H460 31.3 µM | IGROV-1 21.5 µM | UO-31 52 µM | SR 26.4 µM | SW-620 > 100 µM | SF-539 20.6 µM | DU-145 69.8 µM | EKVX 47.3 µM | SN12C > 100 µM | M14 73.5 µM | Hs-578T 24.5 µM | SNB-19 62.8 µM | BT-549 17 µM | SK-MEL-5 23.4 µM | HOP-62 26.1 µM | NCI/ADR-RES 37.5 µM | A549 28.6 µM

CCOC(=O)c1c(N)sc2c1C(C(=O)OCC)CCCC2 (centres undefined)
inactive: NCI-H460 35.2 µM | HOP-92 75.5 µM | IGROV-1 > 100 µM | UO-31 37.6 µM | SR 34.6 µM | SW-620 > 100 µM | PC-3 32.9 µM | SNB-75 > 100 µM | EKVX 85.3 µM | SN12C 91 µM | M14 > 100 µM | Hs-578T 43.9 µM | SNB-19 71.6 µM | BT-549 > 100 µM | SK-MEL-5 75.2 µM | HOP-62 > 100 µM | A549 88.9 µM

O=C(Nc1cccc(C(F)(F)F)c1)C(=O)C1NC(=S)NC1=O (centres undefined)
inactive: NCI-H460 > 100 µM | HOP-92 > 100 µM | IGROV-1 > 100 µM | UO-31 > 100 µM | SR > 100 µM | SW-620 17.7 µM | SF-539 > 100 µM | SNB-75 > 100 µM | EKVX > 100 µM | SN12C > 100 µM | M14 > 100 µM | SNB-19 > 100 µM | SK-MEL-5 > 100 µM | HOP-62 > 100 µM | A549 > 100 µM

CC(=O)Nc1ccc2nc(-c3cccc(Cl)c3)cc(O)c2c1
inactive: NCI-H460 > 10 µM | HOP-92 4.85 µM | IGROV-1 13.4 µM | SR 5.37 µM | SW-620 4.41 µM | SF-539 4.71 µM | PC-3 4.72 µM | SNB-75 4.4 µM | EKVX > 100 µM | SN12C 32.2 µM | M14 11.1 µM | Hs-578T 2.59 µM | SNB-19 7.62 µM | BT-549 15.4 µM | SK-MEL-5 4.93 µM | HOP-62 65 µM | NCI/ADR-RES > 100 µM | A549 54.7 µM
